In PMC10907560, “Significant reduction of activity retention in the kidneys via optimized linker sequences in radiohybrid-based minigastrin analogs” (EJNMMI Research, 2024):
Read-outs that look alike come from different tables or passages of the source. Numbered stars: 1 amine (or outer) side, 2 acyl side, 3 side chain; on linkers, the order of the positions; unused ones are H or OH. Square brackets hold non-standard residues; d marks the D form. Peptide text beside a SMILES is read from it. * marks the point of attachment. X1 = CC(C)(C)[Si](F)(c1ccc(C[N+](C)(C)CC(=O)*)cc1)C(C)(C)C; DOTA = O=C(O)CN1CCN(CC(=O)O)CCN(CC(=O)*)CCN(CC(=O)O)CC1; d(γGlu) = O=C(O)[C@@H](CCC(=O)[*:2])N[*:1]; 1Nal = N[C@@H](Cc1cccc2ccccc12)C(=O)O; PEG5 = NCCOCCOCCOCCOCCOCCC(=O)O; NMeNle = CCCC[C@H](NC)C(=O)O; PEG4 = NCCOCCOCCOCCOCCC(=O)O; Nle = CCCC[C@H](N)C(=O)O; dDap = NC[C@@H](N)C(=O)O

Legend:
[1] = molecular target: T1, cholecystokinin-2 receptor (CCK-2R) (Rattus norvegicus, UniProt P30553); conditions: AR42J cells; read-out: apparent IC50; cited from earlier work
T1 construct: host or cells: AR42J (rat pancreatic cancer cells)
T1 sequence (P30553 1-452): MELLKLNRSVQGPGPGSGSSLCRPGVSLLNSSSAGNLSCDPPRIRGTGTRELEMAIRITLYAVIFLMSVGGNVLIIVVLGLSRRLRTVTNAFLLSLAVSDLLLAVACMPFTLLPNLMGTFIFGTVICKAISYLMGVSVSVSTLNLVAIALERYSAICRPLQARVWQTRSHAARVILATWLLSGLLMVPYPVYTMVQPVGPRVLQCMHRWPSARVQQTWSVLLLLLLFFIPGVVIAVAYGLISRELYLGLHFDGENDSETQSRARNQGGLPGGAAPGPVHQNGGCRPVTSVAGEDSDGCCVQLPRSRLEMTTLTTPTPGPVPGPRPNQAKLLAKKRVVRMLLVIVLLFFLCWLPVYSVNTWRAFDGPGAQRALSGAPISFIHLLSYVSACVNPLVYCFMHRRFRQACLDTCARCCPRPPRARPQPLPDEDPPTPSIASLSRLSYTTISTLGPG

[2] = system: AR42J tumor-bearing CB17-SCID mice; conditions: 24 h p.i.; cited from earlier work
[3] = molecular target: T2, Human serum albumin (HSA) (Homo sapiens, UniProt P02768); experiment: Human serum albumin binding via high performance affinity chromatography (HPAC); type: in vitro ADME; conditions: Chiralpak HSA column, n = 1
T2 construct: purchased Daicel, Tokyo, Japan H13H-2433
T2 sequence (P02768 25-609): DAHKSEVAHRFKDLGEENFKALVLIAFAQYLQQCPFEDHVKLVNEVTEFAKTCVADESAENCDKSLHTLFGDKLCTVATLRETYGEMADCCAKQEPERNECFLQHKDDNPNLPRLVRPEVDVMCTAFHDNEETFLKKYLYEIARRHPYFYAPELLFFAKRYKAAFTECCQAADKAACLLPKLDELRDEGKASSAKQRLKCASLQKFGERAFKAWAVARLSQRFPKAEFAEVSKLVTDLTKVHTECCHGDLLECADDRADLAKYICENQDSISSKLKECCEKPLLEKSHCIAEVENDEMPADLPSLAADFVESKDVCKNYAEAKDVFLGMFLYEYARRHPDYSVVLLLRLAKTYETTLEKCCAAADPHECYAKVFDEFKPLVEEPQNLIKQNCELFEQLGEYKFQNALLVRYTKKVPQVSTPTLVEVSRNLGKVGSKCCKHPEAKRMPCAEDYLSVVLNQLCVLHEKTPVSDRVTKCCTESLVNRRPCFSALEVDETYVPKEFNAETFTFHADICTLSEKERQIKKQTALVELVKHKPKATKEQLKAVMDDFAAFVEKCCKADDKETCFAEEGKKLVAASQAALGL
Method: Human serum albumin (HSA) binding was determined via high performance affinity chromatography (HPAC), according to previously published protocols. Human serum albumin interaction was calculated according to the retention time (n = 1) of our compounds on a Chiralpak HSA column in dependence of nine reference compounds with known HSA interaction.
Human serum albumin binding was determined via high performance affinity chromatography. Therefore, a Chiralpak HSA column (50 × 3 mm, 5 µm, H13H-2433, Daicel, Tokyo, Japan) was used at a constant flow rate of 0.5 ml/min at room temperature. Mobile phase A consisted of a freshly prepared aqueous solution of NH4OAc (pH = 6.9, 50 mM) and mobile phase B of isopropanol. Calibration of the column was performed daily prior to experiments, by determining the retention times of nine reference substances displaying a HSA binding from 13 to 99%. HPLC gradient for all compounds tested was 100% A (0 to 3 min), followed by 80% A (3 to 40 min). All substances tested, were dissolved in a mixture of A/B (0.5 mg/mL, 1:1, v/v). OriginPro 2016G software (Northampton, United States) was used for non-linear regression and data evaluation.

[4] = Lipophilicity, n-octanol/PBS distribution coefficient logD7.4; type: physicochemical; conditions: 177Lu-labeled peptide; n-octanol/PBS (1/1), n ≥ 5
Method: For determination of lipophilicity, the respective ^177Lu-Labeled peptide precursor (~ 1 MBq, 10 µL in 0.04 M HCl) was added to a solution of n-octanol/PBS (1/1, v/v, 1 mL) and vigourously mixed for 3 min at room temperature (n ≥ 5). Afterwards both phases were seperated using a Biofuge 15 centrifuge (Heraus Sepatech GmbH, Osterode, Germany) at 9,000 rpm for 5 min. 200 µL aliquots of both layers were collected separately, measured in a γ-counter (Perkin Elmer, Waltham, MA, USA) and the logD7.4 value was obtained.

[5] = molecular target: T1, cholecystokinin-2 receptor (CCK-2R); experiment: CCK-2R affinity (apparent IC50), competitive binding on AR42J cells; conditions: natLu-labeled peptide, 3 h, 37 °C, [177Lu]Lu-DOTA-PP-F11N (0.3 pmol) as radiolabeled reference
Method: On the next day, medium was removed, cells were washed with PBS (300 µL) and fresh nutrient medium supplemented with 5% BSA (200 µL) was added. The peptide of interest (25 µL in nutrient medium) in increasing concentrations (10^−10 to 10^−4 M) in triplicate as well as [^177Lu]Lu-DOTA-PP-F11N (25 μL, 0.3 pmol) were added to the cells and the assay was incubated for 3 h at 37 °C. Subsequently, the supernatant was collected, cells were washed with PBS (300 µL) and both fractions were unified. Cell lysis was conducted by addition of NaOH (300 µL, 1 N) and incubation for at least 20 min at room temperature. The supernatant was collected, the respective wells were washed with NaOH (300 µL, 1 N) and both fractions were unified. Radioactivity of all fractions collected was quantified using a γ-counter (PerkinElmer Inc., Waltham, United States). Apparent half-maximal inhibitory concentration (IC50) was calculated via the GraphPad PRISM software (GraphPad Software Inc., La Jolla, United States).
CCK-2R positive rat pancreatic cancer cells AR42J (CLS GmbH, Eppelheim, Germany) were cultivated in monolayers in CELLSTAR® cell culture flask (Greiner Bio-One GmbH, Frickenhausen, Germany) at 37°C in a humidified atmosphere (5% CO2). Therefor, a HERAcell 150i-Incubator (Thermo Fisher Scientific Inc., Waltham, United States) was used. RPMI 1640 medium, supplemented with 5 mM L-Gln 5 mL non-essential amino acids (100×) and 10% FCS, was used for cell nutrition. Detachment of the cells for passaging was conducted with a Dulbecco’s PBS solution supplemented with 0.1% EDTA (v/v). Cell numbers were determined with a Neubauer hemocytometer (Paul Marienfeld, Lauda-Königshofen, Germany). All operations requiring sterile conditions, were accomplished using a MSC-Advantage safety workbench (Thermo Fisher Scientific Inc., Waltham, United States).
Table S1. Affinity, lipophilicity and human serum albumin binding data of the compounds evaluated. Affinity data were determined on AR42J cells (2.0 × 10^5 cells/well) and [^177Lu]Lu-DOTA-PP-F11N (0.3 pmol/well) as radiolabeled reference (3 h, 37 °C, RPMI 1640, 5 mM L-Gln, 5 mL non-essential amino acids (100×), 10% FCS + 5% BSA (v/v)).

Compound	IC50 [1]	activity levels in the tumor [2]	HSA binding [3]	logD [4]	IC50 ([5]; n = 3)	IC50 ([5]; n = 3, listed as [^natLu]Lu-DOTA-rhCCK-69)
(R)-DOTAGA-D-Dap(p-SiFA)-(D-γ-Glu)6-Ala-Tyr-Gly-Trp-Nle-Asp-Phe-NH2 ({(R)‑DOTAGA-dDap(p-SiFA)-d(γGlu)-d(γGlu)-d(γGlu)-d(γGlu)-d(γGlu)-d(γGlu)}-AYGW[Nle]DF-NH2; also: 177Lu complex of DOTAGA) [[^177Lu]Lu-(R)-DOTAGA-rhCCK-16]	20.4 ± 2.7 nM	18.0 ± 0.7 %ID/g				
CCCC[C@@H](C(=O)N[C@@H](CC(=O)O)C(=O)N[C@@H](Cc1cccc2ccccc12)C(N)=O)N(C)C(=O)[C@H](Cc1c[nH]c2ccccc12)NC(=O)CCOCCOCCOCCOCCNC(=O)CC[C@@H](NC(=O)CCOCCOCCOCCOCCOCCNC(=O)[C@@H](CNC(=O)C[N+](C)(C)Cc1ccc([Si](F)(C(C)(C)C)C(C)(C)C)cc1)NC(=O)CN1CCN(CC(=O)O)CCN(CC(=O)O)CCN(CC(=O)O)CC1)C(=O)O [[^nat/177Lu]Lu-DOTA-rhCCK-90, DOTA-D-Dap(SiFAlin)-(PEG)4-B, metal not drawn] ({DOTA}-[dDap](X1)[PEG5][d(γGlu)][PEG4]W[NMeNle]D[1Nal]-NH2)			94.5%	-0.76 ± 0.09	9.9 ± 1 nM	
CCCC[C@@H](C(=O)N[C@@H](CC(=O)O)C(=O)N[C@@H](Cc1cccc2ccccc12)C(N)=O)N(C)C(=O)[C@H](Cc1c[nH]c2ccccc12)NC(=O)CCOCCOCCOCCOCCNC(=O)CC[C@@H](NC(=O)CCOCCOCCOCCOCCOCCOCCOCCOCCOCCOCCOCCOCCNC(=O)CC[C@@H](NC(=O)[C@@H](CNC(=O)c1cc(C(=O)O)cc([Si](F)(C(C)(C)C)C(C)(C)C)c1)NC(=O)CN1CCN(CC(=O)O)CCN(CC(=O)O)CCN(CC(=O)O)CC1)C(=O)O)C(=O)O [[^nat/177Lu]Lu-DOTA-rhCCK-69, DOTA-D-Dap(SiFA-ipa)-D-γ-Glu-(PEG)11-B, metal not drawn]			84.7%	-2.11 ± 0.09		42.1 ± 1.7 nM
